Reference: patent US12077503B2, “Substituted cyclic amides and their use as herbicides” (FMC CORPORATION, priority 2015, dated 2024)

Legend:
Assay in all cases: Test C postemergence
Assay type in all cases: in vivo
Settings in all cases: scale 0 to 100, 0 no effect, 100 complete control
[1] = tested on: lambsquarters (Chenopodium album)
In short: (§1)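 Greenhouse test: seeds in a loam and sand blend treated preemergence, or seedlings at the 1- to 4-leaf stage (2 to 18 cm) in a peat, vermiculite and limestone mix treated postemergence, with test chemicals in a surfactant-containing non-phytotoxic solvent. Scored by eye at 13 to 15 d relative to controls, 0 (no effect) to 100 (complete control).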

soybean (Glycine max) = tested on: soybean (Glycine max)
In short: as §1

[2] = tested on: barnyardgrass (Echinochloa crus-galli)
In short: as §1

[3] = tested on: velvetleaf (Abutilon theophrasti)
In short: as §1

[4] = tested on: nutsedge, yellow (yellow nutsedge, Cyperus esculentus)
In short: as §1

[5] = tested on: chickweed (common chickweed, Stellaria media)
In short: as §1

[6] = tested on: oat, wild (wild oat, Avena fatua)
In short: as §1

[7] = tested on: ragweed (common ragweed, Ambrosia elatior)
In short: as §1

[8] = tested on: blackgrass (Alopecurus myosuroides)
In short: as §1

[9] = tested on: morningglory (Ipomoea coccinea)
In short: as §1

[10] = tested on: waterhemp (common waterhemp, Amaranthus rudis)
In short: as §1

[11] = tested on: johnsongrass (Sorghum halepense)
In short: as §1

[12] = tested on: crabgrass, large (large crabgrass, Digitaria sanguinalis)
In short: as §1

[13] = tested on: pigweed (Amaranthus retroflexus)
In short: as §1

**Q.** What does the source list for `CN1CC(c2ccc(F)c(F)c2)C(C(=O)Nc2ccccc2C(F)(F)F)C1=O` (stereo not shown) [Compound 641]?
**A.** Plant response rating, Lambsquarters ([1]; 31 g ai/ha): 5; Plant response rating, Lambsquarters ([1]; 62 g ai/ha): 15; Plant response rating, Lambsquarters ([1]; 125 g ai/ha): 5; Plant response rating, Lambsquarters ([1]; 250 g ai/ha): 30; Plant response rating, Soybean (soybean (Glycine max); 31 g ai/ha): 0; Plant response rating, Soybean (soybean (Glycine max); 62 g ai/ha): 0; Plant response rating, Soybean (soybean (Glycine max); 125 g ai/ha): 5; Plant response rating, Soybean (soybean (Glycine max); 250 g ai/ha): 15; Plant response rating, Barnyardgrass ([2]; 31 g ai/ha): 0; Plant response rating, Barnyardgrass ([2]; 62 g ai/ha): 10; Plant response rating, Barnyardgrass ([2]; 125 g ai/ha): 35; Plant response rating, Barnyardgrass ([2]; 250 g ai/ha): 65; Plant response rating, Velvetleaf ([3]; 31 g ai/ha): 40; Plant response rating, Velvetleaf ([3]; 62 g ai/ha): 40; Plant response rating, Velvetleaf ([3]; 250 g ai/ha): 50; Plant response rating, Nutsedge, Yellow ([4]; 31 g ai/ha): 0; Plant response rating, Nutsedge, Yellow ([4]; 62 g ai/ha): 0; Plant response rating, Nutsedge, Yellow ([4]; 125 g ai/ha): 0; Plant response rating, Nutsedge, Yellow ([4]; 250 g ai/ha): 0; Plant response rating, Chickweed ([5]; 31 g ai/ha): 0; Plant response rating, Chickweed ([5]; 62 g ai/ha): 0; Plant response rating, Chickweed ([5]; 125 g ai/ha): 50; Plant response rating, Chickweed ([5]; 250 g ai/ha): 55; Plant response rating, Oat, Wild ([6]; 31 g ai/ha): 0; Plant response rating, Oat, Wild ([6]; 62 g ai/ha): 0; Plant response rating, Oat, Wild ([6]; 125 g ai/ha): 0; Plant response rating, Oat, Wild ([6]; 250 g ai/ha): 0; Plant response rating, Ragweed ([7]; 31 g ai/ha): 0; Plant response rating, Ragweed ([7]; 62 g ai/ha): 0; Plant response rating, Ragweed ([7]; 125 g ai/ha): 40; Plant response rating, Ragweed ([7]; 250 g ai/ha): 30; Plant response rating, Blackgrass ([8]; 31 g ai/ha): 0; Plant response rating, Blackgrass ([8]; 62 g ai/ha): 0; Plant response rating, Blackgrass ([8]; 125 g ai/ha): 0; Plant response rating, Blackgrass ([8]; 250 g ai/ha): 0; Plant response rating, Morningglory ([9]; 31 g ai/ha): 0; Plant response rating, Morningglory ([9]; 62 g ai/ha): 15; Plant response rating, Morningglory ([9]; 125 g ai/ha): 35; Plant response rating, Morningglory ([9]; 250 g ai/ha): 40; Plant response rating, Waterhemp ([10]; 31 g ai/ha): 10; Plant response rating, Waterhemp ([10]; 62 g ai/ha): 10; Plant response rating, Waterhemp ([10]; 125 g ai/ha): 25; Plant response rating, Waterhemp ([10]; 250 g ai/ha): 30; Plant response rating, Johnsongrass ([11]; 31 g ai/ha): 0; Plant response rating, Johnsongrass ([11]; 62 g ai/ha): 0; Plant response rating, Johnsongrass ([11]; 125 g ai/ha): 0; Plant response rating, Johnsongrass ([11]; 250 g ai/ha): 0; Plant response rating, Crabgrass, Large ([12]; 31 g ai/ha): 10; Plant response rating, Crabgrass, Large ([12]; 62 g ai/ha): 50; Plant response rating, Crabgrass, Large ([12]; 125 g ai/ha): 70; Plant response rating, Crabgrass, Large ([12]; 250 g ai/ha): 70; Plant response rating, Pigweed ([13]; 31 g ai/ha): 0; Plant response rating, Pigweed ([13]; 62 g ai/ha): 0; Plant response rating, Pigweed ([13]; 125 g ai/ha): 25; Plant response rating, Pigweed ([13]; 250 g ai/ha): 50
